Laboratory results from ChEMBL document CHEMBL1159316, “Bioactive saponins from Acacia tenuifolia from the suriname rainforest” (J Nat Prod, 2002).
In brackets after ≈: the same amount, converted by molar mass.

Tests used:
Saccharomyces cerevisiae [1] = test: Antifungal activity against Saccharomyces cerevisiae 1140; type: functional
Saccharomyces cerevisiae [2] = test: Antifungal activity against Saccharomyces cerevisiae Sc7; type: functional
Saccharomyces cerevisiae [3] = test: Antifungal activity against Saccharomyces cerevisiae 1353; type: functional
Saccharomyces cerevisiae [4] = test: Antifungal activity against Saccharomyces cerevisiae 1138; type: functional
M109 = test: Cytotoxicity against mouse M109 cells; type: functional, cell-based
A2780 = test: Cytotoxicity against human A2780 cells; type: functional, cell-based

Row | Compound | IC12 (Saccharomyces cerevisiae [1]) | IC12 (Saccharomyces cerevisiae [2]) | IC12 (Saccharomyces cerevisiae [3]) | IC12 (Saccharomyces cerevisiae [4]) | IC50 (M109) | IC50 (A2780)
1 | CC(=O)N[C@H]1[C@H](O[C@H]2CC[C@]3(C)[C@H]4CC=C5[C@@H]6CC(C)(C)CC[C@]6(C(=O)O)CC[C@@]5(C)[C@]4(C)CC[C@H]3C2(C)C)O[C@H](CO[C@@H]2OC[C@H](O)[C@H](O)[C@H]2O[C@@H]2OC[C@H](O)[C@H](O)[C@H]2O)[C@@H](O)[C@@H]1O | 40 µg/mL | 45 µg/mL | 30 µg/mL | 25 µg/mL | 1 µg/mL (≈ 1.08 µM) | –
2 | CC(=O)N[C@H]1[C@H](O[C@H]2CC[C@]3(C)[C@H]4CC=C5[C@@H]6CC(C)(C)[C@@H](OC(=O)/C=C/c7ccccc7)C[C@]6(C(=O)O)[C@H](O)C[C@@]5(C)[C@]4(C)CC[C@H]3C2(C)C)O[C@H](CO[C@@H]2OC[C@H](O)[C@H](O)[C@H]2O[C@@H]2OC[C@@H](O)[C@H](O)[C@H]2O)[C@@H](O)[C@@H]1O [ACACIOSIDE B] | 220 µg/mL | 280 µg/mL | 220 µg/mL | 150 µg/mL | – | 13.5 µg/mL (≈ 12.4 µM)
3 | CC(=O)N[C@H]1[C@H](O[C@H]2CC[C@]3(C)[C@H]4CC=C5[C@@H]6CC(C)(C)[C@@H](OC(=O)/C=C/c7ccccc7)C[C@]6(C(=O)O)[C@H](O)C[C@@]5(C)[C@]4(C)CC[C@H]3C2(C)C)O[C@H](CO[C@@H]2OC[C@H](O)[C@H](O)[C@H]2O[C@@H]2OC[C@H](O)[C@H](O)[C@H]2O)[C@@H](O)[C@@H]1O [ACACIOSIDE C] | 215 µg/mL | 275 µg/mL | 220 µg/mL | 160 µg/mL | – | 13 µg/mL (≈ 12 µM)
4 | CC(=O)N[C@H]1[C@H](O[C@H]2CC[C@]3(C)[C@H]4CC=C5[C@@H]6CC(C)(C)CC[C@]6(C(=O)O)CC[C@@]5(C)[C@]4(C)CC[C@H]3C2(C)C)O[C@H](CO[C@@H]2OC[C@H](O)[C@H](O)[C@H]2O[C@@H]2OC[C@@H](O)[C@H](O)[C@H]2O)[C@@H](O)[C@@H]1O [ALBIZIATRIOSIDE A] | 35 µg/mL | 30 µg/mL | 35 µg/mL | 30 µg/mL | 1 µg/mL (≈ 1.08 µM) | –
